Experimental data reported in paper PMC7031696 (Cell chemical biology, 2019).

Test system: 3D7-MR4 trophozoite parasite-infected RBCs
Test: Metabolomic profiling (hydrophilic metabolite changes, UHPLC-MS)
Assay type: cell-based, Plasmodium falciparum

## Ferroquine [reference compound]
Metabolite adenosine, log2 fold change
  Log2(fold changes) adenosine: 0.0000
Metabolite alanine/sarcosine, log2 fold change
  Log2(fold changes) alanine/sarcosine: 0.0137
Metabolite anthranilate, log2 fold change
  Log2(fold changes) anthranilate: 0.0000
Metabolite arginine, log2 fold change
  Log2(fold changes) arginine: 0.0962
Metabolite asparagine, log2 fold change
  Log2(fold changes) asparagine: 0.2455
Metabolite aspartate, log2 fold change
  Log2(fold changes) aspartate: 0.0829
Metabolite biotin, log2 fold change
  Log2(fold changes) biotin: 0.0000
Metabolite cCMP, log2 fold change
  Log2(fold changes) cCMP: 0.0000
Metabolite cGMP, log2 fold change
  Log2(fold changes) cGMP: 0.0000
Metabolite carnitine, log2 fold change
  Log2(fold changes) carnitine: 0.0000
Metabolite citrate/isocitrate, log2 fold change
  Log2(fold changes) citrate/isocitrate: 0.0063
Metabolite coenzyme A
  Log2(fold change) of coenzyme A: 0.9119
Metabolite cyclic-AMP
  Log2(fold change) of cyclic-AMP: 0.1031
Metabolite cytidine
  Log2(fold change) of cytidine: 0.1024
Metabolite dAMP
  Log2(fold change) of dAMP: -0.3497
Metabolite dATP
  Log2(fold change) of dATP: 0.0366
Metabolite dCDP
  Log2(fold change) of dCDP: -0.2652
Metabolite dCMP
  Log2(fold change) of dCMP: -0.1471
Metabolite dCTP
  Log2(fold change) of dCTP: 0.0304
Metabolite dGDP/ADP
  Log2(fold change) of dGDP/ADP: -0.1961
Metabolite dGMP/AMP
  Log2(fold change) of dGMP/AMP: -0.3182
Metabolite dGTP/ATP
  Log2(fold change) of dGTP/ATP: 0.0666
Metabolite dTDP
  Log2(fold change) of dTDP: -0.3263
Metabolite dTMP
  Log2(fold change) of dTMP: -0.4999
Metabolite dTTP
  Log2(fold change) of dTTP: 0.0866
Metabolite dUMP
  Log2(fold change) of dUMP: 0.0000
Metabolite dUTP
  Log2(fold change) of dUTP: 0.0000
Metabolite deoxyguanosine
  Log2(fold change) of deoxyguanosine: 0.0000
Metabolite deoxyinosine
  Log2(fold change) of deoxyinosine: 0.0000
Metabolite deoxyribose-phosphate
  Log2(fold change) of deoxyribose-phosphate: 0.0000
Metabolite deoxyuridine
  Log2(fold change) of deoxyuridine: 0.0000
Metabolite dihydroorotate
  Log2(fold change) of dihydroorotate: 0.1627
Metabolite folate
  Log2(fold change) of folate: 0.1440
Metabolite fructose-1-6-bisphosphate
  Log2(fold change) of fructose-1-6-bisphosphate: 0.3162
Metabolite fructose-6-phosphate
  Log2(fold change) of fructose-6-phosphate: 0.3514
Metabolite fumarate
  Log2(fold change) of fumarate: -0.0660
Metabolite glucono-lactone
  Log2(fold change) of glucono-lactone: 0.0470
Metabolite glucose-1/6-phosphate
  Log2(fold change) of glucose-1/6-phosphate: 0.0000
Metabolite glutamate
  Log2(fold change) of glutamate: 0.0411
Metabolite glutamine
  Log2(fold change) of glutamine: 0.1003
Metabolite glutathione
  Log2(fold change) of glutathione: 0.0000
Metabolite glutathione disulfide
  Log2(fold change) glutathione disulfide: -0.3466
Metabolite glycerate
  Log2(fold change) glycerate: 0.0000
Metabolite guanine
  Log2(fold change) guanine: 0.0000
Metabolite guanosine
  Log2(fold change) guanosine: -0.2330
Metabolite histidine
  Log2(fold change) histidine: 0.0507
Metabolite homocysteic acid
  Log2(fold change) homocysteic acid: 0.0000
Metabolite hydroxyphenylpyruvate
  Log2(fold change) hydroxyphenylpyruvate: 0.0000
Metabolite hydroxyproline/Aminolevulinate
  Log2(fold change) hydroxyproline/Aminolevulinate: 0.0365
Metabolite hypoxanthine
  Log2(fold change) hypoxanthine: 0.0000
Metabolite indole
  Log2(fold change) indole: 0.0000
Metabolite inosine
  Log2(fold change) inosine: 0.4396
Metabolite isoleucine
  Log2(fold change) isoleucine: 0.0740
Metabolite lactate
  Log2(fold change) lactate: 0.1682
Metabolite leucine
  Log2(fold change) leucine: 0.0991
Metabolite lysine
  Log2(fold change) lysine: 0.0854
Metabolite malate
  Log2(fold change) malate: -0.0032
Metabolite maleic acid
  Log2(fold change) maleic acid: 0.0142
Metabolite methionine
  Log2(fold change) methionine: 0.2846
Metabolite myo-inositol
  Log2(fold change) myo-inositol: 0.0000
Metabolite nicotinamide mononucleotide
  Log2(fold change) nicotinamide mononucleotide: -0.0133
Metabolite nicotinate
  Log2(fold change) nicotinate: 0.1646
Metabolite ornithine
  Log2(fold change) ornithine: 0.0000
Metabolite orotate
  Log2(fold change) orotate: 0.0201
Metabolite orotidine-5'-phosphate
  Log2(fold change) orotidine-5'-phosphate: 0.1401
Metabolite oxaloacetate
  Log2(fold change) oxaloacetate: 0.0000
Metabolite p-aminobenzoate
  Log2(fold change) p-aminobenzoate: 0.0000
Metabolite p-hydroxybenzoate
  Log2(fold change) p-hydroxybenzoate: 0.0000
Metabolite pantothenate
  Log2(fold change) pantothenate: 0.1559
Metabolite phenylalanine
  Log2(fold change) phenylalanine: 0.0217
Metabolite phenylpyruvate
  Log2(fold change) phenylpyruvate: 0.0000
Metabolite phosphoenolpyruvate
  Log2(fold change) phosphoenolpyruvate: 0.1068
Metabolite prephenate
  Log2(fold change) prephenate: 0.0000
Metabolite proline
  Log2(fold change) proline: 0.0000
Metabolite pyridoxine
  Log2(fold change) pyridoxine: 0.3553
Metabolite pyruvate
  Log2(fold change) pyruvate: -0.3114
Metabolite riboflavin
  Log2(fold change) riboflavin: 0.0000
Metabolite ribose
  Log2(fold change) ribose: 0.0000
Metabolite ribose-phosphate
  Log2(fold change) ribose-phosphate: 0.0000
Metabolite ribulose-5-phosphate
  Log2(fold change) ribulose-5-phosphate: 0.1038
Metabolite serine
  Log2(fold change) serine: 0.2426
Metabolite sn-glycerol-3-phosphate
  Log2(fold change) sn-glycerol-3-phosphate: 0.0527
Metabolite succinate/Methylmalonic acid
  Log2(fold change) succinate/Methylmalonic acid: -0.0206
Metabolite succinyl-CoA/methylmalonyl-CoA
  Log2(fold change) succinyl-CoA/methylmalonyl-CoA: 0.0000
Metabolite taurine
  Log2(fold change) taurine: 0.3032
Metabolite thiamine
  Log2(fold change) thiamine: 0.1205
Metabolite threonine/homoserine
  Log2(fold change) threonine/homoserine: 0.0762
Metabolite thymidine
  Log2(fold change) thymidine: 0.0000
Metabolite thymine, log2 fold change
  Log2(fold changes) thymine: 0.0000
Metabolite trehalose-6-Phosphate, log2 fold change
  Log2(fold changes) trehalose-6-Phosphate: 0.0000
Metabolite tryptophan, log2 fold change
  Log2(fold changes) tryptophan: -0.1782
Metabolite tyrosine, log2 fold change
  Log2(fold changes) tyrosine: 0.0328
Metabolite uridine, log2 fold change
  Log2(fold changes) uridine: 0.0000
Metabolite valine, log2 fold change
  Log2(fold changes) valine: 0.0750
Metabolite xanthine, log2 fold change
  Log2(fold changes) xanthine: 0.0000
Metabolite xanthosine-5-phosphate, log2 fold change
  Log2(fold changes) xanthosine-5-phosphate: 0.2017
Metabolite xanthosine, log2 fold change
  Log2(fold changes) xanthosine: -0.1521
Metabolite xylose, log2 fold change
  Log2(fold changes) xylose: 0.0000
